Results taken from paper PMC8412337, “Alpha-single chains of collagen type VI inhibit the fibrogenic effects of triple helical collagen VI in hepatic stellate cells” (PLoS ONE, 2021).

Test system: primary rat HSC
Test: Morphology and αSMA protein expression (activation of HSCs)
Assay type: cell-based
Method: Activated HSC (third passage) were serum starved for 24 h in standard medium without FBS (starving medium), followed by dissociation with 500 μl 0.05% trypsin-EDTA (Biochrom, Berlin, Germany) and neutralization with 30 ml starving medium containing 1 g/l soybean trypsin inhibitor and 1 g/l ovalbumin. Alternatively, cells were scraped carefully with a cell-scraper (Costar, Cambridge, MA, USA) to exclude any potential effect of trypsin. […] For quantification of spreading, cells that had attached were counted 12 hours after plating and spreading efficiency was determined as percentage of plated cells in each group. De-novo DNA synthesis and apoptosis were assessed by morphological criteria, Cell death detection ELISA and FACS analysis as described below. […] After blocking the cells 1h with DMEM+1% FBS, the cells were incubated with primary antibodies against a-actin (Sigma-Aldrich, Taufkirchen, Germany, #A2547; dilution 1:200) and GFAP (Sigma-Aldrich, #G9269; dilution 1:20) followed by a washing step with PBS and the incubation with fluorescence-labeled secondary antibodies (Alexa Fluor 546 & Alexa Fluor 488, Molecular Probes, Eugene, USA, #A11030 & #A11034; dilution 1:100). […]
Dislodged cells were centrifuged at 800 x g/10 min and lysed with 100 μl lysis buffer. […] The emitted fluorescence was assessed at 570 nm in a SpectraMax Gemini EM (Molecular Devices, Biberach an der Riß, Germany). […]

CVI: Human collagen VI isolated from placentas by pepsin digestion; triple helical, soluble
protein expression of αSMA (freshly isolated rat HSCs, immunostaining, detected as early as three days, immunoblotting): strongly induced | formation of cytoplasmic extensions (primary rat HSC, serum-reduced medium containing 1% FBS, five days): induced the formation of distinct cytoplasmic extensions
